From US5602106A, “16-membered macrolide derivatives” (priority 1993, dated 1997)
Values after ≈ are worked out from the molar mass of the structure shown. “Also recorded” adds a separate entry of the source.

Key:
[1] = test system: certain bacteria, for example, a species of acid-fast bacteria; conditions: Chemistry Letters, 769 (1977); cited from earlier work
[2] = test system: B. catarrhalis W-0500; test: MIC, agar plate dilution method; type: cell-based; conditions: Moraxella catarrhalis, W0500, 20 h, read-out: Antimicrobial activity (MIC), 37° C., 20 hours, SDA with 5% horse blood
Summary of the method: (§1)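 For H. influenzae and Branhamella, cells came from blood agar plates; staphylococci came from broth seed cultures. Plates of sensitivity disk agar plus 5% horse blood received 5 μl spots (~10^6 CFU/ml) and stood at 37° C. for 20 hours prior to reading.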

[3] = test system: B. catarrhalis W-0506; test: MIC, agar plate dilution method; type: cell-based; conditions: Moraxella catarrhalis, W0506; 37° C., 20 hours, SDA with 5% horse blood; read-out: Antimicrobial activity (MIC)
Summary of the method: as §1

[4] = test system: E. faecalis W-73; test: MIC, agar plate dilution method; type: cell-based; conditions: Enterococcus faecalis, W73, 20 h, read-out: Antimicrobial activity (MIC)
Summary of the method: as §1

[5] = test system: H. influenzae Type b; test: MIC, agar plate dilution method; type: cell-based; conditions: Haemophilus influenzae, 20 h, read-out: Antimicrobial activity (MIC), 37° C., 20 hours, SDA with 5% horse blood
Summary of the method: as §1

[6] = test system: K. pneumoniae PCI602; test: MIC, agar plate dilution method; type: cell-based; conditions: Klebsiella pneumoniae, PCI602, 20 h, 37° C., SDA with 5% horse blood, read-out: Antimicrobial activity (MIC)
Summary of the method: as §1

[7] = test system: M. luteus ATCC9341; test: MIC, agar plate dilution method; type: cell-based; conditions: Micrococcus luteus, ATCC9341; 37° C., 20 hours, SDA with 5% horse blood; read-out: Antimicrobial activity (MIC)
Summary of the method: as §1

[8] = test system: S. aureus 209P JC-1; test: MIC, agar plate dilution method; type: cell-based; conditions: Staphylococcus aureus, 209P, 20 h, 37° C., 20 hours, SDA with 5% horse blood; read-out: Antimicrobial activity (MIC)
Summary of the method: as §1

[9] = test system: S. aureus M126; test: MIC, agar plate dilution method; type: cell-based; conditions: Staphylococcus aureus, 37° C., 20 hours, SDA with 5% horse blood, read-out: Antimicrobial activity (MIC)
Summary of the method: as §1

[10] = test system: S. aureus M133; test: MIC, agar plate dilution method; type: cell-based; conditions: Staphylococcus aureus, M133, 20 h, read-out: Antimicrobial activity (MIC), 37° C., 20 hours, SDA with 5% horse blood
Summary of the method: as §1

[11] = test system: S. aureus MS15009/pMS98; test: MIC, agar plate dilution method; type: cell-based; conditions: Staphylococcus aureus, MS15009/PMS98, 20 h, read-out: Antimicrobial activity (MIC), 37° C., 20 hours, SDA with 5% horse blood
Summary of the method: (§2)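 Seed cultures are prepared in STB for Staphylococcus strains and on blood agar for H. influenzae and B. catarrhalis. A 5 μl inoculum (approx. 10^6 CFU/ml) goes onto blood-supplemented agar plates, which incubate 20 hours at 37° C. before MIC determination.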

[12] = test system: S. aureus MS15009/pMS99; test: MIC, agar plate dilution method; type: cell-based; conditions: Staphylococcus aureus, MS15009/PMS99, 20 h, read-out: Antimicrobial activity (MIC)
Summary of the method: as §2

[13] = test system: S. aureus MS15026; test: MIC, agar plate dilution method; type: cell-based; conditions: Staphylococcus aureus, 37° C., 20 hours, SDA with 5% horse blood, read-out: Antimicrobial activity (MIC)
Summary of the method: as §1

[14] = test system: S. aureus MS15027; test: MIC, agar plate dilution method; type: cell-based; conditions: Staphylococcus aureus, MS15027, 20 h, read-out: Antimicrobial activity (MIC), 37° C., 20 hours, SDA with 5% horse blood
Summary of the method: as §1

[15] = test system: S. epidermidis ATCC14990; test: MIC, agar plate dilution method; type: cell-based; conditions: Staphylococcus epidermidis, ATCC14990, 20 h, read-out: Antimicrobial activity (MIC), 37° C., 20 hours, SDA with 5% horse blood
Summary of the method: as §1

[16] = test system: S. pneumoniae IP692; test: MIC, agar plate dilution method; type: cell-based; conditions: Streptococcus pneumoniae, IP692, 20 h, 37° C., 20 hours, SDA with 5% horse blood; read-out: Antimicrobial activity (MIC)
Summary of the method: (§3)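 MIC by agar plate dilution: ~10^6 CFU/ml inocula (5 μl spots) on Sensitivity disk agar with 5% horse blood, 37 °C for 20 h. Seed cultures grown in Sensitivity test broth, except Streptococcus, Branhamella and Haemophilus, which were precultured on blood agar.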

[17] = test system: S. pneumoniae Type 1; test: MIC, agar plate dilution method; type: cell-based; conditions: Streptococcus pneumoniae, TYPE1; 37° C., 20 hours, SDA with 5% horse blood; read-out: Antimicrobial activity (MIC)
Summary of the method: as §3

[18] = test system: test strains; test: Antimicrobial activity in vitro, test strains overall; type: cell-based
Summary of the method: as §1

[19] = test system: Branhamella catarrhalis; test: Antimicrobial activity in vitro; type: cell-based; conditions: vs clarithromycin
Description: (§4) The effect of the first aspect of the present invention resides in the creation of a novel and useful 16-membered macrolide derivative. Antimicrobial activities of the compounds of the present invention were determined by measuring minimum inhibitory concentration (MIC). Minimum inhibitory concentration was determined by the agar plate dilution method in the following manner.
(§5) Test strains were subjected to seed culture using Sensitivity test broth (STB, Nissui Pharmaceutical) except that the strains belonging to the genus Streptococcus, Branhamella and Haemophilus were cultured on blood agar plate. A 5 μl portion of cell suspension of the test strains having about 10^6 CFU/ml was inoculated into Sensitivity disk agar (SDA, Nissui Pharmaceutical) supplemented with 5% horse blood and incubated at 37° C. for 20 hours. Then, MIC was measured. […] Antimicrobial activities in vitro of the compounds (1) and (2) are shown in Table 1, and those of the compounds (3) and (4) in Table 3.

[20] = test system: Enterococcus feacalis; test: Antimicrobial activity in vitro; type: cell-based; conditions: vs clarithromycin
Description: as §4, §5

[21] = test system: Haemophilus influenzae; test: Antimicrobial activity in vitro; type: cell-based; conditions: vs clarithromycin
Description: as §4, §5

[22] = test system: Streptococcus pneumoniae; test: Antimicrobial activity in vitro; type: cell-based; conditions: compared with MDM and LM-A7
Description: as §4, §5

[23] = test system: drug-resistant strain of Staphylococcus; test: Antimicrobial activity in vitro; type: cell-based; conditions: vs clarithromycin
Description: as §4, §5

[24] = test system: clinically important Gram-positive bacteria; test: Antimicrobial activity / growth inhibition; type: cell-based
Summary of the method: as §1

## CO[C@@H]1[C@@H](O[C@@H]2O[C@H](C)[C@@H](O[C@H]3C[C@@](C)(OC)[C@@H](OC(=O)CC(C)C)[C@H](C)O3)[C@H](N(C)C)[C@H]2O)[C@@H](CC=O)C[C@@H](C)C(=O)/C=C/C=C/C[C@@H](C)OC(=O)C[C@H]1OC(C)=O [3"-O-methylcarbomycin B]
[1]
  antimicrobial activity compared with carbomycin B: higher antimicrobial activity than carbomycin B

## CCC(=O)O[C@H]1[C@H](C)O[C@@H](O[C@H]2[C@H](N(C)C)[C@@H](O)[C@H](O[C@H]3[C@@H](CC=O)C[C@@H](C)[C@@H](O)/C=C/C=C/C[C@@H](C)OC(=O)C[C@@H](O)[C@@H]3OC)O[C@@H]2C)C[C@@]1(C)OC [(2), 3"-O-methylleucomycin A7]
[2]
  MIC: 0.39 µg/mL (≈ 0.505 µM)
[3]
  MIC: 0.78 µg/mL (≈ 1.01 µM)
[4]
  MIC: 0.39 µg/mL (≈ 0.505 µM)
[5]
  MIC: 6.25 µg/mL (≈ 8.1 µM)
[6]
  MIC: > 100 µg/mL
[7]
  MIC: < 0.025 µg/mL
[8]
  MIC: 0.1 µg/mL (≈ 0.13 µM)
[9]
  MIC: > 100 µg/mL
[10]
  MIC: 0.2 µg/mL (≈ 0.259 µM)
[11]
  MIC: 0.2 µg/mL (≈ 0.259 µM)
[12]
  MIC: > 100 µg/mL
[13]
  MIC: > 100 µg/mL
[14]
  MIC: 0.2 µg/mL (≈ 0.259 µM)
[15]
  MIC: 0.2 µg/mL (≈ 0.259 µM)
[16]
  MIC: < 0.025 µg/mL
[17]
  MIC: 0.05 µg/mL (≈ 0.0648 µM)
[18]; against most of test strains
  antimicrobial activities in vitro compared with corresponding compounds having free 3"-hydroxyl (MDM, LM-A7): twice as high
[18]; vs rokitamycin
  antimicrobial activities in comparison with rokitamycin: generally excellent except for a Gram-negative bacterium (Branhamella catarrhalis); also recorded: slightly superior to those of rokitamycin
[19]
  antimicrobial activity compared with clarithromycin: inferior to that of clarithromycin
[20]
  antimicrobial activity compared with clarithromycin: comparable or slightly superior activities
[21]
  antimicrobial activity compared with clarithromycin: comparable or slightly superior activities
[22]
  antimicrobial activity against Streptococcus pneumoniae: considerably improved antimicrobial activity
[23]
  antimicrobial activity compared with clarithromycin: definitely superior antimicrobial activity
[24]
  antimicrobial activities (in words): strong antimicrobial activities
